Measurements as given in patent publication US4299970A, “Oxy-alkylamino carboxylic esters” (Beecham Group Limited, priority 1974, dated 1981).
≈ marks a conversion by molar mass, not a printed value. Read-outs that look alike come from different tables or passages of the source. One block for each molecule: values may come before it.

Legend:
antifertility activity = antifertility activity in female mice; type: in vivo; settings: 50-100 mg/kg, s.c.; 5 days pre-coitally and 10 days post-coitally
Method: Antifertility activity was determined by subcutaneous dosing of female mice for 5 days pre-coitally and 10 days post-coitally. Three female mice per group were used and these were mated with males of proven fertility and mating confirmed by examination for copulation plugs.

[1] = test system: gerbil colon; contraction to prostaglandin F2α; assay: prostaglandin antagonist activity on the isolated perfused gerbil colon (contraction to prostaglandin F2α); settings: Meriones unguiculatus; reduction of contraction to prostaglandin F2α; one minute pre-contact time
Method: (§1) The compounds were tested for prostaglandin-like and for prostaglandin antagonist activity on the isolated perfused gerbil colon preparation (smooth muscle). This has been shown by J. R. Weeks, J. R. Schultz and W. E. Brown, (1968), J. App. Physiol, 25, 783, to have greater precision and sensitivity than other preparations. A 15 mm portion of the descending colon is suspended in an organ bath and perfused with De Jalon's saline at 32° C. Compounds were given in a three minute cycle with a 45 second contact time and a 15 second washout time. Antagonist compounds were given with a one minute pre-contact time.
Antagonist activity was determined by measuring the percentage reduction of the contraction to two standard doses of prostaglandin F2α which gave responses between 20% and 80% of maximum response.

[2] = test system: femoral artery of the hind limb; assay: vasodilator activity in femoral artery of the hind limb (vascular resistance); type: in vivo, beagle dog; settings: dose range of 0.01-1 mg/kg, intra-arterially
Method: (§2) b. The vasodilator activity of the compounds was determined in the femoral artery of the hind limb of the anaesthetised beagle dog. The method used was similar to that described by J. Nakano and J. R. McCurdy, (1967), J. Pharmac. Exp. Ther., 156, 538.
The compounds were administered into the iliac artery and the effects on both flow and pressure in the hind limb were recorded. Changes in vascular resistance (R) were calculated from the following expression: [formula]

[3] = test system: total peripheral resistance; assay: total peripheral resistance, intravenous; type: in vivo, beagle dog; settings: dose range of 0.01-10 mg/kg, intra-venously
Method: as §2
In other experiments the compounds were administered into the left femoral vein and the right femoral arterial pressure and cardiac output were monitored. From these experiments, total peripheral resistance (TPR) was calculated from the expression: [formula]

[4] = test system: human platelet aggregation induced by collagen; assay: inhibition of human platelet aggregation induced in vitro by collagen; type: cell-based; settings: 10^-4 M, collagen, platelet rich plasma, 37° C.
Method: b. The compounds were examined for their ability to inhibit human platelet aggregation induced, in vitro, either by adenosine diphosphate (ADP) or collagen. The compounds were added in saline or dimethylformamide to platelet rich plasma at 37° C. to give a final concentration of 10^-4 M. After 3 minutes the platelets were challenged with ADP or collagen. The aggregation response was then recorded relative to the control.

[5] = test system: guinea pig platelet aggregation induced by ADP; assay: inhibition of guinea pig platelet aggregation induced in vitro by ADP; type: cell-based; settings: Cavia porcellus, ADP 5.45×10^-7 M, platelet rich plasma, 37° C.
Method: a. The compounds were examined for their ability to inhibit guinea pig platelet aggregation induced, in vitro, by 5.45×10^-7 M adenosine diphosphate (ADP).
The method consisted of diluting the compound immediately before use from a 10 mg/ml solution in ethanol to a 1 mg/ml solution with saline and then adding the appropriate volume to 0.5 ml of platelet rich plasma. The mixture was stirred at 37° C. for 1 minute before 25 μl of an ADP solution was added to give a final ADP concentration of 5.45×10^-7 M. The aggregation response was then recorded relative to the control.

gerbil colon = assay: prostaglandin-like activity on the isolated perfused gerbil colon; settings: De Jalon's saline, 32° C.
Method: as §1
Prostaglandin-like activity was determined using the method of H. O. Schlid, (1942), J. Physiol., 101, 115, which is a standard 4×4 latin square assay. Some of the compounds stimulated the gerbil colon to contract which is a prostaglandin-like effect, and the results are shown in Table 15.

[6] = test system: pentagastrin-stimulated gastric acid secretion; assay: inhibition of pentagastrin-stimulated gastric acid secretion, anaesthetised perfused rat stomach (Ghosh and Schild preparation); type: in vivo; settings: intravenous
Text: a. The compounds were examined for their ability to inhibit pentagastrin-stimulated gastric acid secretion in the anaesthetised, perfused rat stomach preparation (Ghosh and Schild preparation).
M. N. Ghosh and H. O. Schild, (1958), Brit. J. Pharmacol, 13, 54.
The compounds were given intravenously.

gastric acid secretion = assay: inhibition of gastric acid secretion in the pyloric ligated rat (Shay rat preparation); type: in vivo; settings: for ED50: sc
Text: b. The compounds were examined for their ability to inhibit gastric acid secretion in the pyloric ligated rat model (Shay rat preparation).
H. Shay, S. A. Komarov, S. S. Fels, D. Merance, M. Gruenstein and H. Siplet, (1945), Gastroenerology, 5, 43.

[7] = test system: gastric acid secretion, stimulated by pentagastrin infusion; assay: inhibition of pentagastrin-stimulated gastric acid secretion, chronic fistula rat preparation; type: in vivo; settings: 2-5 mg/kg, s.c.
Text: c. The compounds were examined for their ability to inhibit gastric acid secretion, stimulated by pentagastrin infusion, in the chronic fistula rat preparation.
P. H. Guth and R. Mendick, (1965), Amer. J. Gastroenterology, 44, 545.

[8] = test system: indomethacin-induced ulcer; assay: indomethacin-induced ulcer test in fasted rats; type: in vivo, rat; settings: 20 mg/kg, s.c., twice; 5 hour test; indomethacin 50 mg/kg, i.p.
Method: d. Anti-ulcer activity was determined in a 5 hour indomethacin-induced (50 mg/kg, i.p.) ulcer test in fasted rats. Compound 63 inhibited ulceration by 71% when given at 20 mg/kg, s.c., twice during the course of the test.

[9] = test system: 5-hydroxy-tryptamine-induced bronchoconstriction; assay: inhibition of 5-hydroxytryptamine-induced bronchoconstriction (Konsett-Rossler preparation); type: in vivo, guinea pig; settings: Cavia porcellus; intravenous, 2 minutes prior to 5-hydroxytryptamine dose
Method: a. The compounds were examined for their ability to inhibit 5-hydroxy-tryptamine-induced bronchoconstriction in the anaesthetised, artifically respired guinea pig (Konsett-Rossler preparation).
H. Konsett and R. Rossler, (1940), Naunyn-Schneidebergs Arch. Exp. Path. Pharmak., 195, 71.
After preparation of the guinea pig, a dose of 5-hydroxytryptamine producing an adequate response was determined by dosing, i.v., every 6 minutes. This dose was usually 10 μg. After a standard response was obtained, compounds were given intra-venously 2 minutes prior to the next standard dose and dosing of 5-hydroxytryptamine was continued every 6 minutes until the response returned to control values.

[10] = test system: histamine-induced asphyxic collapse; assay: protection against aerosol administered, histamine-induced asphyxic collapse; type: in vivo, guinea pig
Text: b. The compounds were examined for their ability to protect against aerosol administered, histamine-induced asphyxic collapse in guinea pigs.
M. A. Wasserman and R. L. Griffen, (1975), Am. Rev. Resp. Dis., 111, 946.

arterial blood pressure = assay: effect on arterial blood pressure in the anaesthetised, normotensive rat; type: in vivo; settings: intravenous, dose range 0.001 → 1.0 mg/kg
Method: a. The effect of the compounds on arterial blood pressure was determined in the anaesthetised, normotensive rat. The rat preparation was similar to that desribed in "Pharmacological experiments on intact preparations", E. and S. Livingstone, Edinburgh and London, 1970, p. 63.
The active compounds were predominantly depressor agents in the normotensive rat.

[11] = subcutaneously twice, 3 hour Shay rat preparation

SMILES: CCCCCCC(O)CCN1CCC(O)C1CCCCCCCO (centres unmarked) [Compound 108]
antifertility activity (antifertility activity): active

IC50 [1]: 1.55 µg/mL (≈ 4.76 µM)
SMILES: CCCCCCCCN1C(=O)CCC(O)C1CCCCCCC (centres unmarked) [Compound 99, 2-n-Heptyl-3-hydroxy-1-n-octyl-piperidin-6-one]

SMILES: CCCCCCCCN1CCCC(O)C1CCCCCCC (centres unmarked) [Compound 112, 2-n-heptyl-3-hydroxy-1-n-octyl-piperidine]
vascular resistance [2]: decreased vascular resistance
total peripheral resistance (TPR) [3]: decreased total peripheral resistance
inhibition at 100 µM [4]: 77%
antifertility activity (antifertility activity): active

IC50 [5]: 51 µM
SMILES: CCCCCCC(C)(O)CCN1C(=O)CCC(=O)C1CCCCCCC(=O)OCC (centres unmarked) [Compound 56]

SMILES: CCCCCC(O)CCN1CCCC(O)C1CCCCCCCO (centres unmarked) [Compound 100]
Concentration/ml. for contractions (gerbil colon): 0.01 to 0.02 µg/mL

IC50 [5]: 11 µM
SMILES: CCCCCC(C)C(C)(O)CCN1C(=O)CCC(=O)C1CCCCCCC(=O)OCC (centres unmarked) [Compound 60]
ED50 [6]: 1 mg/kg

IC50 [5]: 1.3 µM
SMILES: CCCCCCC(C)(O)CCN1C(=O)CC(=O)C1CCCCCCC(=O)OCC (centres unmarked) [Compound 63, 2-(6'-Ethoxycarbonyl-n-hexyl)-1-(3"-hydroxy-3"-methyl-n-nonyl)-pyrrolidin-3,5-dione]
ED50 [6]: 0.09 mg/kg
activity when given intraduodenally (gastric acid secretion; intraduodenally, Shay rat preparation): active
ED50 (gastric acid secretion; subcutaneously once, 3 hour Shay rat preparation, at the time of ligation, read-out: ED50, given once): 5.3 mg/kg
ED50 (gastric acid secretion; subcutaneously twice, 3 hour Shay rat preparation, at time of ligation and 1.5 hours after, read-out: ED50, given twice): 2.25 mg/kg
H^+ concentration (gastric acid secretion; [11]): decreasing the H^+ concentration
total titratable acidity in the stomach (gastric acid secretion; [11]): lowered the total titratable acidity in the stomach
volume of secretion (gastric acid secretion; [11]): inhibiting the volume of secretion
inhibiting acid secretion [7]: very effective
inhibition of ulceration [8]: 71%
ED50 [9]: 0.008 mg/kg
protecting against histamine challenge [10]: very effective
% Depression at 1 mg/kg (arterial blood pressure): 60%
vascular resistance [2]: decreased vascular resistance
total peripheral resistance (TPR) [3]: decreased total peripheral resistance

SMILES: CCOC(=O)CCCCCCC1C(=O)CCC(=O)N1CCCO (centres unmarked) [Compound 74]
Concentration/ml. for contractions (gerbil colon): 4 to 8 µg/mL

IC50 [1]: 0.17 µg/mL (≈ 0.357 µM)
SMILES: CCCCCC(CCN1C(=O)CC(O)C1CCCCCCC(=O)OCC)OCc1ccccc1 (centres unmarked) [Compound 81]

IC50 [5]: 147 µM
SMILES: CCCCCC(O)CCN1C(=O)CC(O)C1CCCCCCC(=O)OCC (centres unmarked) [Compound 76, 2-(6'-ethoxycarbonyl-n-hexyl)-3-hydroxy-1-(3"-hydroxy-n-octyl)-pyrrolidin5-one]
inhibition at 100 µM [4]: 79%

SMILES: CCCCCCC(O)CCN1CCCC(O)C1CCCCCCCO (centres unmarked) [Compound 105]
% Depression at 1 mg/kg (arterial blood pressure): 20%
inhibition at 100 µM [4]: 78%

SMILES: CCCCCC(O)CCN1C(=O)CC(=O)C1CCCCCCC(=O)OCC (centres unmarked) [Compound 75, 2-(6'-ethoxycarbonyl-n-hexyl)-1-(3"-hydroxy-n-octyl)-pyrrolidin-3,5-dione]
inhibition at 100 µM [4]: 61%
Concentration/ml. for contractions (gerbil colon): 0.2 to 0.5 µg/mL

SMILES: CCCCCC(O)CCN1CCC(O)C1CCCCCCCO (centres unmarked) [Compound 102]
inhibition at 100 µM [4]: 71%
Concentration/ml. for contractions (gerbil colon): 0.04 to 0.10 µg/mL
